According to patent publication US12479840B2, “HMG-CoA reductase degradation inducing compound” (Uppthera, priority 2020, dated 2025):

Target: T1, HMG-CoA reductase (Homo sapiens, UniProt P04035)
T1 construct: endogenous in cells; host or cells: HepG2 (Korea Cell Line Bank)
T1 sequence (P04035 1-888): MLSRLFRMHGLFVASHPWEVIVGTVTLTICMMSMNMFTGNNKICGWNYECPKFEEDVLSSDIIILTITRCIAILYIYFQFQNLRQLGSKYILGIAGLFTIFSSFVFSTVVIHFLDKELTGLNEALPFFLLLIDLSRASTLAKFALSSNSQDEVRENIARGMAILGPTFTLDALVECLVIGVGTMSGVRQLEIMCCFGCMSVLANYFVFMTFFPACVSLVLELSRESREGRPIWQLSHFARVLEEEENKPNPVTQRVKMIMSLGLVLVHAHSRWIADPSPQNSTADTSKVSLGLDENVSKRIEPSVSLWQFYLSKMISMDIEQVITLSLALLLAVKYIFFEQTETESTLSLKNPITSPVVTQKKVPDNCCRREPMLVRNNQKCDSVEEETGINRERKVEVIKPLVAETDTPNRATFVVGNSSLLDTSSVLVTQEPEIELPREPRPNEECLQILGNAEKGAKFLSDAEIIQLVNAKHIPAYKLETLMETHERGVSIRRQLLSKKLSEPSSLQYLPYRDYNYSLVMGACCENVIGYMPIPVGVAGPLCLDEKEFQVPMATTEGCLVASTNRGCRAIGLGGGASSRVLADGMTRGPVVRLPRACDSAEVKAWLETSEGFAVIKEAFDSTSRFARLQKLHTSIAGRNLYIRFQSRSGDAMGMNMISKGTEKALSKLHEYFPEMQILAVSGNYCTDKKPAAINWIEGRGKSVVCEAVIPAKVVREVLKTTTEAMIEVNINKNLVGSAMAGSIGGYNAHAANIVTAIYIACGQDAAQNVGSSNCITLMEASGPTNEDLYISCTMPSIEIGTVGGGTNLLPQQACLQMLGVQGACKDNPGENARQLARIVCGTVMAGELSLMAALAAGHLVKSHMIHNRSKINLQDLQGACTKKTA
Experiment: HMG-CoA reductase (HMGCR) degradation in HepG2 cells by western blotting
Assay type: cell-based
Details: treated for 18 hours, ratio of HMG-CoA reductase to GAPDH, read-out: DC50
Summary of the method: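 Western blot read-out: HMGCR protein probed (1:500, 16 hours at 4° C) alongside GAPDH loading control on 15 μg BCA-normalised RIPA lysates. Lysates came from HepG2 cells (P105–P110) exposed for 18 hours to a 10-point, three-fold series starting at 3 μM.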

Compound	DC50 [nM]
C[C@H]1C=C2C=C[C@H](C)[C@H](CC[C@@H]3C[C@@H](O[Si](C)(C)C(C)(C)C)CC(=O)O3)[C@H]2[C@@H](OC(=O)NCCCCCNc2cccc3c2C(=O)N(C2CCC(=O)NC2=O)C3=O)C1 (stereo partly drawn) [Compound 51, (1S,3R,7S,8S,8aR)-8-(2-((2R,4R)-4-((tert-butyldimethylsilyl)oxy)-6-oxotetrahydro-2H-pyran-2-yl)ethyl)-3,7-dimethyl-1,2,3,7,8,8a-hexahydronaphthalen-1-yl (5-((2-(2,6-dioxopiperidin-3-yl)-1,3-dioxoisoindolin-4-yl)amino)pentyl)carbamate]	< 50
C[C@H]1C=C2C=C[C@H](C)[C@H](CC[C@@H]3C[C@@H](O[Si](C)(C)C(C)(C)C)CC(=O)O3)[C@H]2[C@@H](OC(=O)NCCCCCCNc2cccc3c2C(=O)N(C2CCC(=O)NC2=O)C3=O)C1 (stereo partly drawn) [Compound 52, (1S,3R,7S,8S,8aR)-8-(2-((2R,4R)-4-((tert-butyldimethylsilyl)oxy)-6-oxotetrahydro-2H-pyran-2-yl)ethyl)-3,7-dimethyl-1,2,3,7,8,8a-hexahydronaphthalen-1-yl (6-((2-(2,6-dioxopiperidin-3-yl)-1,3-dioxoisoindolin-4-yl)amino)hexyl)carbamate]	< 50
C[C@H]1C=C2C=C[C@H](C)[C@H](CC[C@@H]3C[C@@H](O[Si](C)(C)C(C)(C)C)CC(=O)O3)[C@H]2[C@@H](OC(=O)NCCCCCCCNc2cccc3c2C(=O)N(C2CCC(=O)NC2=O)C3=O)C1 (stereo partly drawn) [Compound 53, (1S,3R,7S,8S,8aR)-8-(2-((2R,4R)-4-((tert-butyldimethylsilyl)oxy)-6-oxotetrahydro-2H-pyran-2-yl)ethyl)-3,7-dimethyl-1,2,3,7,8,8a-hexahydronaphthalen-1-yl (7-((2-(2,6-dioxopiperidin-3-yl)-1,3-dioxoisoindolin-4-yl)amino)heptyl)carbamate]	< 50
C[C@H]1C=C2C=C[C@H](C)[C@H](CC[C@@H]3C[C@@H](O[Si](C)(C)C(C)(C)C)CC(=O)O3)[C@H]2[C@@H](OC(=O)NCCCCCCCCNc2cccc3c2C(=O)N(C2CCC(=O)NC2=O)C3=O)C1 (stereo partly drawn) [Compound 54, (1S,3R,7S,8S,8aR)-8-(2-((2R,4R)-4-((tert-butyldimethylsilyl)oxy)-6-oxotetrahydro-2H-pyran-2-yl)ethyl)-3,7-dimethyl-1,2,3,7,8,8a-hexahydronaphthalen-1-yl (8-((2-(2,6-dioxopiperidin-3-yl)-1,3-dioxoisoindolin-4-yl)amino)octyl)carbamate]	< 50
C[C@H]1C=C2C=C[C@H](C)[C@H](CC[C@@H]3C[C@@H](O[Si](C)(C)C(C)(C)C)CC(=O)O3)[C@H]2[C@@H](OC(=O)NCCCCCCCCCNc2cccc3c2C(=O)N(C2CCC(=O)NC2=O)C3=O)C1 (stereo partly drawn) [Compound 55, (1S,3R,7S,8S,8aR)-8-(2-((2R,4R)-4-((tert-butyldimethylsilyl)oxy)-6-oxotetrahydro-2H-pyran-2-yl)ethyl)-3,7-dimethyl-1,2,3,7,8,8a-hexahydronaphthalen-1-yl (9-((2-(2,6-dioxopiperidin-3-yl)-1,3-dioxoisoindolin-4-yl)amino)nonyl)carbamate]	< 50
C[C@H]1C=C2C=C[C@H](C)[C@H](CC[C@@H]3C[C@@H](O[Si](C)(C)C(C)(C)C)CC(=O)O3)[C@H]2[C@@H](OC(=O)NCCCCCCCCCCNc2cccc3c2C(=O)N(C2CCC(=O)NC2=O)C3=O)C1 (stereo partly drawn) [Compound 56, (1S,3R,7S,8S,8aR)-8-(2-((2R,4R)-4-((tert-butyldimethylsilyl)oxy)-6-oxotetrahydro-2H-pyran-2-yl)ethyl)-3,7-dimethyl-1,2,3,7,8,8a-hexahydronaphthalen-1-yl (10-((2-(2,6-dioxopiperidin-3-yl)-1,3-dioxoisoindolin-4-yl)amino)decyl)carbamate]	< 50
C[C@H]1C=C2C=C[C@H](C)[C@H](CC[C@@H]3C[C@@H](O[Si](C)(C)C(C)(C)C)CC(=O)O3)[C@H]2[C@@H](OC(=O)NCCCCCCCCCCCNc2cccc3c2C(=O)N(C2CCC(=O)NC2=O)C3=O)C1 (stereo partly drawn) [Compound 57, (1S,3R,7S,8S,8aR)-8-(2-((2R,4R)-4-((tert-butyldimethylsilyl)oxy)-6-oxotetrahydro-2H-pyran-2-yl)ethyl)-3,7-dimethyl-1,2,3,7,8,8a-hexahydronaphthalen-1-yl (11-((2-(2,6-dioxopiperidin-3-yl)-1,3-dioxoisoindolin-4-yl)amino)undecyl)carbamate]	< 50
C[C@H]1C=C2C=C[C@H](C)[C@H](CC[C@@H]3C[C@@H](O)CC(=O)O3)[C@H]2[C@@H](OC(=O)NCCCCCNc2cccc3c2C(=O)N(C2CCC(=O)NC2=O)C3=O)C1 (stereo partly drawn) [Compound 58, (1S,3R,7S,8S,8aR)-8-(2-((2R,4R)-4-hydroxy-6-oxotetrahydro-2H-pyran-2-yl)ethyl)-3,7-dimethyl-1,2,3,7,8,8a-hexahydronaphthalen-1-yl (5-((2-(2,6-dioxopiperidin-3-yl)-1,3-dioxoisoindolin-4-yl)amino)pentyl)carbamate]	50 to 500
C[C@H]1C=C2C=C[C@H](C)[C@H](CC[C@@H]3C[C@@H](O)CC(=O)O3)[C@H]2[C@@H](OC(=O)NCCCCCCNc2cccc3c2C(=O)N(C2CCC(=O)NC2=O)C3=O)C1 (stereo partly drawn) [Compound 59, (1S,3R,7S,8S,8aR)-8-(2-((2R,4R)-4-hydroxy-6-oxotetrahydro-2H-pyran-2-yl)ethyl)-3,7-dimethyl-1,2,3,7,8,8a-hexahydronaphthalen-1-yl (6-((2-(2,6-dioxopiperidin-3-yl)-1,3-dioxoisoindolin-4-yl)amino)hexyl)carbamate]	50 to 500
C[C@H]1C=C2C=C[C@H](C)[C@H](CC[C@@H]3C[C@@H](O)CC(=O)O3)[C@H]2[C@@H](OC(=O)NCCCCCCCNc2cccc3c2C(=O)N(C2CCC(=O)NC2=O)C3=O)C1 (stereo partly drawn) [Compound 60, (1S,3R,7S,8S,8aR)-8-(2-((2R,4R)-4-hydroxy-6-oxotetrahydro-2H-pyran-2-yl)ethyl)-3,7-dimethyl-1,2,3,7,8,8a-hexahydronaphthalen-1-yl (7-((2-(2,6-dioxopiperidin-3-yl)-1,3-dioxoisoindolin-4-yl)amino)heptyl)carbamate]	50 to 500
C[C@H]1C=C2C=C[C@H](C)[C@H](CC[C@@H]3C[C@@H](O)CC(=O)O3)[C@H]2[C@@H](OC(=O)NCCCCCCCCNc2cccc3c2C(=O)N(C2CCC(=O)NC2=O)C3=O)C1 (stereo partly drawn) [Compound 61, (1S,3R,7S,8S,8aR)-8-(2-((2R,4R)-4-hydroxy-6-oxotetrahydro-2H-pyran-2-yl)ethyl)-3,7-dimethyl-1,2,3,7,8,8a-hexahydronaphthalen-1-yl (8-((2-(2,6-dioxopiperidin-3-yl)-1,3-dioxoisoindolin-4-yl)amino)octyl)carbamate]	< 50
C[C@H]1C=C2C=C[C@H](C)[C@H](CC[C@@H]3C[C@@H](O)CC(=O)O3)[C@H]2[C@@H](OC(=O)NCCCCCCCCCNc2cccc3c2C(=O)N(C2CCC(=O)NC2=O)C3=O)C1 (stereo partly drawn) [Compound 62, (1S,3R,7S,8S,8aR)-8-(2-((2R,4R)-4-hydroxy-6-oxotetrahydro-2H-pyran-2-yl)ethyl)-3,7-dimethyl-1,2,3,7,8,8a-hexahydronaphthalen-1-yl (9-((2-(2,6-dioxopiperidin-3-yl)-1,3-dioxoisoindolin-4-yl)amino)nonyl)carbamate]	50 to 500
C[C@H]1C=C2C=C[C@H](C)[C@H](CC[C@@H]3C[C@@H](O)CC(=O)O3)[C@H]2[C@@H](OC(=O)NCCCCCCCCCCNc2cccc3c2C(=O)N(C2CCC(=O)NC2=O)C3=O)C1 (stereo partly drawn) [Compound 63, (1S,3R,7S,8S,8aR)-8-(2-((2R,4R)-4-hydroxy-6-oxotetrahydro-2H-pyran-2-yl)ethyl)-3,7-dimethyl-1,2,3,7,8,8a-hexahydronaphthalen-1-yl (10-((2-(2,6-dioxopiperidin-3-yl)-1,3-dioxoisoindolin-4-yl)amino)decyl)carbamate]	< 50
C[C@H]1C=C2C=C[C@H](C)[C@H](CC[C@@H]3C[C@@H](O)CC(=O)O3)[C@H]2[C@@H](OC(=O)NCCCCCCCCCCCNc2cccc3c2C(=O)N(C2CCC(=O)NC2=O)C3=O)C1 (stereo partly drawn) [Compound 64, (1S,3R,7S,8S,8aR)-8-(2-((2R,4R)-4-hydroxy-6-oxotetrahydro-2H-pyran-2-yl)ethyl)-3,7-dimethyl-1,2,3,7,8,8a-hexahydronaphthalen-1-yl (11-((2-(2,6-dioxopiperidin-3-yl)-1,3-dioxoisoindolin-4-yl)amino)undecyl)carbamate]	< 50
